Data published in US6110122A, “Breath test for assessing hepatic function” (priority 1999, dated 2000).
“And” between values parts separate entries of the source, which are not always exact repeats. Equal values may be shown once.

Legend:
[1] = system: hepatic mitochondria; settings: in vivo; cited from earlier work
[2] = system: hepatic mitochondrial function; assay: Effect of alcohol and ASA ingestion on the MBT in healthy controls; format: in vivo, human; settings: for effect of ingestion on MBT (in words): healthy controls
Protocol: […] The protocol was then identical to that described previously in Example 1.
The protocol for breath collection was followed as described previously.
The maximum percent dose oxidized per minute was calculated for each substrate following the procedure outlined above in Example 1.

[3] = cited from earlier work
[4] = system: cytosolic function; settings: patients with alcoholic disease; cited from earlier work
[5] = system: hepatic mitochondrial function; settings: in vivo
[6] = system: hepatic mitochondrial function; assay: MBT in patients with liver disease, reproducibility and correlation with Child-Pugh score
[7] = cited from earlier work; remark: listed apart in the source
[8] = system: mitochondrial function; settings: therapeutic doses of ASA; cited from earlier work

Compound: CCO [alcohol]
- effect on KICA decarboxylation (in words) [1]: deceases KICA decarboxylation
- mean change of MBT from baseline with alcohol ([2]; alcohol, n=9, p<0.003): -59±17%
- effect of ingestion on MBT (in words) [2]: significantly decreases
- MBT after alcohol ingestion ([2]; individual subject, 60 cc vodka 15 min prior to MBT): 3.36 % dose/hour and 4.54 % dose/hour and 2.76 % dose/hour and 2.22 % dose/hour and 2.97 % dose/hour and 3.39 % dose/hour and 1.86 % dose/hour and 3.52 % dose/hour and 2.45 % dose/hour
- MBT after alcohol ingestion, group mean ([2]; n=9, 60 cc vodka 15 min prior to MBT): 3.01 % dose/hour and 3.01±0.81 % dose/hour

Compound: CC(C)CC(=O)C(=O)O [KICA, ketoisocaproic acid]
- reduction in ^14 CO2 production [1]: 75%
- stability in solution (in words) [3]: instability in solution

Compound: Cc1c(N(C)C)c(=O)n(-c2ccccc2)n1C [aminopyrine]
- aminopyrine breath test / galactose elimination capacity (in words) [4]: normal

Compound: O=C[C@H](O)[C@@H](O)[C@@H](O)[C@H](O)CO [galactose]
- aminopyrine breath test / galactose elimination capacity (in words) [4]: normal

Compound: O=C([O-])c1ccccc1O.[Na+] [sodium salicylate]
- effect on KICA decarboxylation (in words) [1]: increase in KICA decarboxylation

Compound: CSCC[C@H](N)C(=O)O [methionine, L-1-^13 C-methionine]
- MBT, Mean T1 and T2 (baseline), group mean ([2]; ASA group (n=11) before ASA): 6.17 % dose/hour
- MBT, Mean T1 and T2 (baseline), group mean ([2]; alcohol group (n=9) before alcohol): 7.37 % dose/hour
- mean difference between MBT test 1 and test 2 (95% CI) [5]: -0.073 (-0.475,0.330)
- MBT result for all patients ([6]; all liver patients): 2.85 % dose/hour
- MBT 1 ([6]; cirrhotic patients, individual): 5.01 % dose/hour and 6.30 % dose/hour and 2.47 % dose/hour and 7.18 % dose/hour and 5.66 % dose/hour and 3.20 % dose/hour and 3.55 % dose/hour and 1.67 % dose/hour and 4.36 % dose/hour and 2.63 % dose/hour and 2.10 % dose/hour and 0.99 % dose/hour and 2.02 % dose/hour and 1.31 % dose/hour and 1.34 % dose/hour and 1.87 % dose/hour and 1.94 % dose/hour and 0.46 % dose/hour and 1.80 % dose/hour and 0.54 % dose/hour and 1.11 % dose/hour
- MBT Mean ([6]; cirrhotic patients, individual, mean of MBT 1 and 2): 4.55 % dose/hour and 6.56 % dose/hour and 2.58 % dose/hour and 6.43 % dose/hour and 5.69 % dose/hour and 3.02 % dose/hour and 3.47 % dose/hour and 2.03 % dose/hour and 4.34 % dose/hour and 2.73 % dose/hour and 2.11 % dose/hour and 1.99 % dose/hour and 2.13 % dose/hour and 1.32 % dose/hour and 1.34 % dose/hour and 1.82 % dose/hour and 2.04 % dose/hour and 0.53 % dose/hour and 1.40 % dose/hour and 0.54 % dose/hour and 0.97 % dose/hour and 1.38 % dose/hour
- MBT 2 ([6]; cirrhotic patients, individual, repeat within 12 h): 4.09 % dose/hour and 6.81 % dose/hour and 2.69 % dose/hour and 5.68 % dose/hour and 5.71 % dose/hour and 2.84 % dose/hour and 3.39 % dose/hour and 2.39 % dose/hour and 4.31 % dose/hour and 2.83 % dose/hour and 2.11 % dose/hour and 2.98 % dose/hour and 2.24 % dose/hour and 1.33 % dose/hour and 1.77 % dose/hour and 2.14 % dose/hour and 0.59 % dose/hour and 0.99 % dose/hour and 0.82 % dose/hour and 1.44 % dose/hour
- MBT 1, group mean ([6]; cirrhotic patients, mean): 2.67 % dose/hour
- MBT 2, group mean ([6]; cirrhotic patients, mean): 2.86 % dose/hour
- MBT Mean, group mean ([6]; cirrhotic patients, mean of MBT 1 and 2): 2.76 % dose/hour
- MBT value (mean±SD), CP A ([6]; patients with CP score A): 5.16±1.61 % dose/hour
- MBT value (mean±SD), CP B ([6]; patients with CP score B): 2.81±0.94 % dose/hour
- MBT value (mean±SD), CP C ([6]; patients with CP score C): 1.45±0.55 % dose/hour
- correlation r of methionine clearance with CP score ([7]; cirrhotic patients): -0.80
- correlation r of methionine clearance with GEC ([7]; cirrhotic patients): 0.82
- plasma clearance of methionine (in words) ([7]; intravenous, liver disease / cirrhotic patients vs healthy controls): reduced
- fasting plasma methionine level (in words) ([7]; liver disease vs healthy controls): elevated

Compound: CC(=O)Oc1ccccc1C(=O)O [ASA, acetylsalicylic acid]
- mean change of MBT from baseline with ASA ([2]; ASA, n=11, p<0.001): 36±36%
- effect of ingestion on MBT (in words) [2]: increases
- MBT after ASA ingestion ([2]; individual subject, ASA 30 mg/kg 15 min prior to MBT): 9.47 % dose/hour and 10.08 % dose/hour and 8.88 % dose/hour and 8.73 % dose/hour and 7.77 % dose/hour and 7.34 % dose/hour and 9.24 % dose/hour and 6.47 % dose/hour and 8.61 % dose/hour and 6.88 % dose/hour and 9.27 % dose/hour
- change detected by ^13 C-KICA test (in words) [8]: mitochondrial changes
